{"source": "paper PMC5603603", "about": "“Linoleic and palmitoleic acid block streptokinase-mediated plasminogen activation and reduce severity of invasive group A streptococcal infection” (Scientific Reports, 2017)", "key": {"[1]": {"target": "T1, cluster 2a type streptokinase (Streptococcus pyogenes, UniProt A0A288R465)", "test": "biochemical", "type": "biochemical, group A streptococcal strain A614", "details": "for IC50: supernatant-based, cluster 2a"}, "[2]": {"target": "cluster 1 type streptokinase (Streptococcus pyogenes, UniProt P10520)", "sequence (P00747 20-810)": "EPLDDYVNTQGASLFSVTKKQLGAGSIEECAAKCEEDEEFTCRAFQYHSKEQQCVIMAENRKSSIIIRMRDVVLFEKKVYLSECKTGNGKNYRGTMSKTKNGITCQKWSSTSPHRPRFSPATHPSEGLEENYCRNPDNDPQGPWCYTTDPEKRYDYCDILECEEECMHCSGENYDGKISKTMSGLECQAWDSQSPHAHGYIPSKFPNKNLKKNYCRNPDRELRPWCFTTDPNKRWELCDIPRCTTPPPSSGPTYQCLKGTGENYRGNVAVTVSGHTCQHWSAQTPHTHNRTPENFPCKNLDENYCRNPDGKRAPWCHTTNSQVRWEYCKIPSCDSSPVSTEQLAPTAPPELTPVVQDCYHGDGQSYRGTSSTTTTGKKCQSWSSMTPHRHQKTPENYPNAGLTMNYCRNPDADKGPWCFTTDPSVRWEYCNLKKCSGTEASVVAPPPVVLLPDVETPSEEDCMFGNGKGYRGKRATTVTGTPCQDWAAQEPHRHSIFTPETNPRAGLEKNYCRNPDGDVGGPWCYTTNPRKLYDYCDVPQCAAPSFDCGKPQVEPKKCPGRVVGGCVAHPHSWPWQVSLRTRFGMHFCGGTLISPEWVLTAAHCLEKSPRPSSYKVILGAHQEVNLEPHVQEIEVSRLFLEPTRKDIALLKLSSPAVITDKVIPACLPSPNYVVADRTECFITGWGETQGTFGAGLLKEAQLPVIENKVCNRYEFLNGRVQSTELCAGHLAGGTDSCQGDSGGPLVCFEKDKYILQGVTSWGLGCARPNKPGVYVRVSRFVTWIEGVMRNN", "sequence (P10520 27-440)": "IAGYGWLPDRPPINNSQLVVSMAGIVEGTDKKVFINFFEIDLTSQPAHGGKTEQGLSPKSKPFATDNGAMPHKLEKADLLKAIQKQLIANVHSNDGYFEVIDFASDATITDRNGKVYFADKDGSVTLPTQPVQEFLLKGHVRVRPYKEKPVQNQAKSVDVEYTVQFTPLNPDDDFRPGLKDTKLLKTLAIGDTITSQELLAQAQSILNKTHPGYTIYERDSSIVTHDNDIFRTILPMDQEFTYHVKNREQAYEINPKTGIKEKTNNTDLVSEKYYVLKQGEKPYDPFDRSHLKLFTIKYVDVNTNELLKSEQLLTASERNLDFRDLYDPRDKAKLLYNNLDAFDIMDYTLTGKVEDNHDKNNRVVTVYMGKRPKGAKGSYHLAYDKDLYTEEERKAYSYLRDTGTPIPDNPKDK", "type": "biochemical, group A streptococcal strain A328", "details": "supernatant-based, cluster 1; for effect on plasminogen activation: concentrations up to 100 µg/ml (around 320–437 µM)", "method": "An overnight culture of the strain A328 (cluster 1 type) or A614 (cluster 2a type) was diluted 1:10 in pre-warmed THY medium and grown to an OD600 of around 0.5 at 37 °C. […] The pellet was resuspended in Tris-HCl buffer (50 mM Tris pH 7.5). Then inhibitory compounds (LA, PA, oleic, myristic, stearic, palmitic, arachidonic, arachidic, linolenic acid, TXA or EACA) were added. Stocks of TXA and EACA were prepared in PBS. Stocks of LA and PA were prepared in methanol and then diluted in PBS. Stocks of arachidic, oleic, arachidonic, myristic, palmitic, stearic and linolenic acid were prepared in 60% DMSO/PBS and then diluted in PBS. The untreated control received the same amount of PBS as in case of TXA and EACA as control or the same amount of methanol diluted in PBS as in case of LA and PA, respectively, or the same amount of DMSO diluted in PBS as in case of the other commercially available fatty acids. […] The assay was run at 37 °C. The absorption was measured at the beginning of the reaction and then every hour at 405 nm after 3 sec of shaking on a Tecan Sunrise ELISAReader using Magellan software. Each experiment was repeated three times. IC50 values were calculated using Microsoft® Excel software."}, "[3]": {"target": "cluster 2b type streptokinase (Streptococcus pyogenes, UniProt P10520)", "parameters": "species or system group A streptococcal strain A314", "details": "cell-based, cluster 2b; for effect on plasminogen activation: concentrations up to 100 µg/ml (around 320–437 µM)", "method": "Then inhibitory compounds (LA, PA, oleic, myristic, stearic, palmitic, arachidonic, arachidic, linolenic acid, TXA or EACA) were added. Stocks of LA and PA were prepared in methanol and then diluted in PBS. Stocks of arachidic, oleic, arachidonic, myristic, palmitic, stearic and linolenic acid were prepared in 60% DMSO/PBS and then diluted in PBS. The untreated control received the same amount of PBS as in case of TXA and EACA as control or the same amount of methanol diluted in PBS as in case of LA and PA, respectively, or the same amount of DMSO diluted in PBS as in case of the other commercially available fatty acids. […] The assay was incubated at 37 °C and measured at the beginning of the reaction and then every hour at 405 nm after 3 sec of shaking on a Tecan Sunrise ELISAReader using Magellan software. Each experiment was repeated three times. IC50 values were calculated using Microsoft® Excel software."}, "[4]": {"target": "T1, cluster 2a type streptokinase", "parameters": "species or system group A streptococcal strain A614", "details": "cell-based, cluster 2a", "method": "The pellet from a mid-log phase culture of the strain A614 (cluster 2a type) or A314 (cluster 2b type) was washed twice with PBS and bacteria were adjusted to an OD600 of 1.0 in HEPES-buffer (10 mM HEPES, 150 mM NaCl, 0.01% Tween 20, pH 7.4). 90 µl of bacterial cells, plasminogen (final concentration 6.7 µg/ml per well) and fibrinogen (final concentration 1 µM per well) were pre-mixed. Then inhibitory compounds (LA, PA, oleic, myristic, stearic, palmitic, arachidonic, arachidic, linolenic acid, TXA or EACA) were added. Stocks of LA and PA were prepared in methanol and then diluted in PBS. Stocks of arachidic, oleic, arachidonic, myristic, palmitic, stearic and linolenic acid were prepared in 60% DMSO/PBS and then diluted in PBS. The untreated control received the same amount of PBS as in case of TXA and EACA as control or the same amount of methanol diluted in PBS as in case of LA and PA, respectively, or the same amount of DMSO diluted in PBS as in case of the other commercially available fatty acids. Then 50 µl of the respective supernatant (supernatant from the strain A614 if cells from A614 were used, supernatant from the strain A314 were used in case of cells from the GAS strain A314) and 3.75 µl 10 mM S-2251 (Chromogenix) were added. The assay was incubated at 37 °C and measured at the beginning of the reaction and then every hour at 405 nm after 3 sec of shaking on a Tecan Sunrise ELISAReader using Magellan software. Each experiment was repeated three times. IC50 values were calculated using Microsoft® Excel software."}, "[5]": {"details": "read-out: inhibition of plasminogen activation"}}, "note": "Read-outs that look alike come from different tables or passages of the source."}
{"smiles": "NCCCCCC(=O)O", "note": "[EACA, ε-amino caproic acid, reference compound]", "values": [{"measurement": "IC50", "setting": "[1]", "result": "> 100", "unit": "mM"}, {"measurement": "IC50", "setting": "[2]", "result": "> 100", "unit": "mM"}, {"measurement": "IC50", "setting": "[3]", "result": 100, "unit": "mM"}, {"measurement": "IC50", "setting": "[4]", "result": "> 100", "unit": "mM"}]}
{"smiles": "NC[C@H]1CC[C@H](C(=O)O)CC1", "note": "[TXA, tranexamic acid, reference compound]", "values": [{"measurement": "IC50", "setting": "[1]", "result": "> 100", "unit": "mM"}, {"measurement": "IC50", "setting": "[2]", "result": "> 100", "unit": "mM"}, {"measurement": "IC50", "setting": "[4]", "result": 100, "unit": "mM"}]}
{"smiles": "CCCCC/C=C\\C/C=C\\C/C=C\\C/C=C\\CCCC(=O)O", "note": "[arachidonic acid, reference compound]", "values": [{"measurement": "effect on plasminogen activation", "setting": "[2]", "result": "no effect"}, {"measurement": "effect on plasminogen activation", "setting": "[3]", "result": "no effect"}]}
{"smiles": "CC/C=C\\C/C=C\\C/C=C\\CCCCCCCC(=O)O", "note": "[linolenic acid, reference compound]", "values": [{"measurement": "inhibition at 359 µM", "setting": "[1]; [5]", "result": 30, "unit": "%"}, {"measurement": "effect on plasminogen activation", "setting": "[3]", "result": "no effect"}]}
{"smiles": "CCCCCCCCCCCCCC(=O)O", "note": "[myristic acid, reference compound]", "values": [{"measurement": "effect on plasminogen activation", "setting": "[2]", "result": "no effect"}, {"measurement": "effect on plasminogen activation", "setting": "[3]", "result": "no effect"}]}
{"smiles": "CCCCCCCC/C=C\\CCCCCCCC(=O)O", "note": "[oleic acid]", "values": [{"measurement": "inhibition at 354 µM", "setting": "[1]; [5]", "result": "~45", "unit": "%"}, {"measurement": "effect on plasminogen activation", "setting": "[3]", "result": "no effect"}, {"measurement": "effect on plasminogen activation", "setting": "[4]; concentrations up to 100 µg/ml (around 320–437 µM)", "result": "not active"}]}
{"smiles": "CCCCCCCCCCCCCCCC(=O)O", "note": "[palmitic acid]", "values": [{"measurement": "effect on plasminogen activation", "setting": "[3]", "result": "unspecific marginal inhibitory effects"}]}
{"smiles": "CCCCCCCCCCCCCCCCCC(=O)O", "note": "[stearic acid]", "values": [{"measurement": "effect on plasminogen activation", "setting": "[3]", "result": "unspecific marginal inhibitory effects"}]}
